Key:
[1] = system: Normal rats; experiment: Blood sugar lowering in normal rats after oral administration; format: in vivo, rat
Description: (a) Male Wistar rats are provided from the National Laboratory Animal Breeding and Research Center (Taipei, Taiwan), each of whose weight is about 200-250 grams, and the average age thereof is above 8 weeks. They were housed under conditions of constant temperature (25±1[…]) and controlled illumination (light time and dark time are respectively 12 hours). Food and water were available.
(d) The administration: Dissolve the medicine equivalently in deionized water, and then administrate the mentioned solution into the normal and diabetic rats by an orally perfusion. Keep with the desired concentration of the perfusion amount by taking suitable amount of the medicine solution according to the weight of the different animal.
The rats to be experimented should undergo a starvation for 8-12 hours overnight. Next day, the rats are anesthetized with 30 mg/kg pentobarbital by injecting into the abdominal cavity. After the rats fall asleep, fix the rats on the board with the rubber band. Open the groin, find the veins, bleed 0.1 ml blood from an empty stomach, and then feed the medicine into the body of the rats by taking orally. After 90 minutes, bleed and perform a centrifugation (13,000 rpm, 5 minutes) to separate the serum and the plasma. Take the 10 μl supernatant of the serum and add 1 ml reagent of the glucose kit thereinto by gently mixing. React for 5 minutes at 37 °C, followed by detecting the value of the blood sugar by means of BST330 based on the different absorption level. […] The value of the blood sugar (mg/dL) is calculated by comparing the level of redness with contrasting the standard curve.
(The value of blood sugar at postadministration)−(The value of blood sugar at preadministration)/(The value of blood sugar at preadministration)×100%
The results of the experiments are presented in the average value±the standard error (mean±SE), and the variations therebetween are evaluated according to the Student's t-test, while the variations thereamong are evaluated according to one-way ANOVA and Bonferroni's t-test, wherein P<0.05 is deemed to have apparent differences.

[2] = system: rats; experiment: Intravenous glucose tolerance test (IGTT); format: in vivo, rat; details: oral 0.5 mg/ml/kg; 1000 mg/kg glucose intravenous, 30 minutes
[3] = system: coronary artery; experiment: Flow rate of the coronary artery in the isolated perfused rat heart (Langendorff); details: for coronary flow: isolated Wistar rat heart
Description: Each of the male Wistar rats weighs about 200-250 grams, and is anesthetized with 25 mg/kg pentobarbital and 16 mg/kg heparin by injecting into the abdominal cavity. After falling asleep, separate the cervical vertebra and immediately take the heart out hanging on the constant pouring pressure circulation instrument (Langendorff, AD Instruments Pty Ltd, ML870B2) and fill a 37[…] pouring solution of 95% of oxygen and 5% of carbon dioxide with the artery (119.7 mM NaCl, 23.8 mM NaHCO3, 5.6 mM glucose, 1.2 mM CaCl2, 1.1 mM MgCl2, 0.3 mM NaH2PO4, and 5.0 mM KCl), which washes the heart and clean out the blood water by pouring in a reverse direction. The rate of the reverse pouring is 10 ml/min, followed by maintaining the pouring pressure of the coronary artery at 80 mmHg. After balancing for thirty minutes, measure the rate of the pouring solution flowing in the heart, and observe the change of the rate the pouring solution flowing in the heart while the testing drug is added.

[4] = system: Insulin; experiment: Insulin concentration before and after oral administration; format: in vivo, rat
Source text: However, it is also observed that the dominant effect for reducing the blood sugar on the type I diabetic rats, which are incapable of secreting insulin.

## O=C(/C=C/c1ccc(O)c(O)c1)NCCc1ccccc1 [370G (45)]
[1]; 0.5 mg/kg oral, Table 14
  % decrease in plasma glucose: 32.8 ± 3.4 %
[1]; 0.5 mg/kg oral, post-treatment
  Post-treatment Plasma glucose: 81.0 ± 5.7 mg/dL
[1]; 0.5 mg/kg oral, pre-treatment (baseline)
  Pre-treatment Plasma glucose: 120.5 ± 5.3 mg/dL
[1]; normal rat
  effect for reducing the blood sugar, compared among rat models: strongest effect
[1]; normal rats, 0.01 mg/kg oral, 90 min
  % decrease in plasma glucose: 11.4 ± 3.1%
[1]; normal rats, 0.05 mg/kg oral, 90 min
  % decrease in plasma glucose: 32.0 ± 1.1 %
[1]; normal rats, 0.1 mg/kg oral, 90 min
  % decrease in plasma glucose: 32.9 ± 2.3 %
[1]; normal rats, 0.5 mg/kg oral, 90 min
  % decrease in plasma glucose: 32.8 ± 3.4 %
[1]; normal rats, 1.0 mg/kg oral, 90 min
  % decrease in plasma glucose: 29.5 ± 1.7 %
[1]; normal rats, oral 0.05 to 1.0 mg/kg
  reducing the blood sugar (in words): phenomenon of reducing the blood sugar are shown
[2]
  glucose availability in IGTT versus control: raised
[3]; Wistar rats, Tables 15 and 16
  effect on coronary flow rate (in words): capable of increasing the coronary flow rate
[3]; conc. 0 (baseline)
  coronary flow: 11.8 ± 1.0 mL/min
[3]; conc. 0.1 (unit printed .[…]M)
  coronary flow: 12.4 ± 1.1 mL/min
[3]; conc. 0.3 (unit printed .[…]M)
  coronary flow: 13.2 ± 1.4 mL/min
[3]; conc. 1 (unit printed .[…]M)
  coronary flow: 15.6 ± 1.2 mL/min
[3]; conc. 3 (unit printed .[…]M)
  coronary flow: 17.4 ± 1.3 mL/min
[3]; conc. 10 (unit printed .[…]M)
  coronary flow: 19.5 ± 0.7 mL/min
[4]; 1 mg/kg, p.o., post-treatment (30 min)
  Insulin, Post-treatment (30 min): 14.9 ± 3.4 μIU/ml
[4]; 1 mg/kg, p.o., pre-treatment (baseline)
  Insulin, Pre-treatment: 7.7 ± 1.0 μIU/ml
[4]; oral 1.0 mg/kg, in 60 minutes
  secretion of insulin (in words): increased

Source: patent US8088818B2, “Catechol-based derivatives for treating or preventing diabetics” (National Taiwan University, priority 2006, dated 2012)
